Assays:
[1] = test system: winter wheat; assay: Test E winter wheat; assay type: in vivo, Triticum aestivum; details: Postemergence; for Plant response rating, Wheat (winter): 0 to 100 scale
How it was run: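 Greenhouse test: compounds in non-phytotoxic solvent with surfactant; for postemergence, sprayed on plants at 1- to 4-leaf stage grown in 60:40 sandy loam/potting mix. Injury rated visually against untreated controls after about 21 to 28 days.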

[2] = test system: duck salad; assay: Test B flood test duck salad; assay type: in vivo, Heteranthera limosa
How it was run: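 Flood test on plants grown to the 2-leaf stage; treated plants kept in greenhouse twelve to sixteen days, then visually rated against controls on a 0 (no effect) to 10 (complete control) scale.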

[3] = test system: wheat; assay: Test B pre/postemergence wheat; assay type: in vivo, Triticum aestivum; details: for Wheat plant response rating (0 to 10 scale): 0 is no effect
How it was run: (§1)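 Herbicidal effect was estimated by eye on a ten-point control scale after plants spent twelve to sixteen days in a greenhouse following soil or foliar treatment. Foliar sprays targeted plants at one to four leaves; all doses were formulated in a non-phytotoxic solvent with surfactant.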

[4] = test system: green foxtail; assay: Test E green foxtail; assay type: in vivo, Setaria viridis; details: Preemergence; for Green foxtail plant response rating (0 to 100 scale): Rate 250 g/ha
[5] = test system: soybean; assay: Test B pre/postemergence soybean; assay type: in vivo, Glycine max; details: for Soybean plant response rating (0 to 10 scale): 0 is no effect
How it was run: as §1

[6] = test system: wild oat; assay: Test E wild oat; assay type: in vivo, Avena fatua; details: Preemergence; for Wild oat plant response rating (0 to 100 scale): Rate 250 g/ha
[7] = test system: winter wheat; assay: Test E winter wheat; assay type: in vivo, Triticum aestivum; details: Preemergence; for Wheat (winter) plant response rating (0 to 100 scale): Rate 250 g/ha
[8] = test system: purple nutsedge; assay: Test B pre/postemergence purple nutsedge; assay type: in vivo, Cyperus rotundus; details: for Nutsedge plant response rating (0 to 10 scale): 0 is no effect
How it was run: as §1

[9] = test system: Italian ryegrass; assay: Test E Italian ryegrass; assay type: in vivo, Lolium multiflorum; details: Preemergence; for I. Ryegrass plant response rating (0 to 100 scale): Rate 250 g/ha
[10] = test system: winter barley; assay: Test E winter barley; assay type: in vivo, Hordeum vulgare; details: Preemergence; for Barley (winter) plant response rating (0 to 100 scale): Rate 250 g/ha
[11] = test system: blackgrass; assay: Test E blackgrass; assay type: in vivo, Alopecurus myosuroides; details: Preemergence; for Blackgrass plant response rating (0 to 100 scale): Rate 250 g/ha
[12] = Postemergence (flood test species), Rate 125 g/ha, scale of 0 to 10 where 0 is no effect and 10 is complete control
[13] = Rate 62 g/ha, Postemergence section, flood test species, scale of 0 to 10 where 0 is no effect and 10 is complete control
[14] = Rate 250 g/ha, Postemergence (flood test), scale 0 to 10, 0 is no effect, 10 is complete control
[15] = Postemergence, Rate 125 g/ha, scale of 0 to 10 where 0 is no effect and 10 is complete control
[16] = Preemergence, Rate 62 g/ha, scale 0 to 10 (0 no effect, 10 complete control)
[17] = Preemergence, Rate 125 g/ha, 10 is complete control
[18] = Preemergence, Rate 250 g/ha, scale 0 to 10, 0 is no effect, 10 is complete control
[19] = Preemergence, Rate 500 g/ha, scale 0 to 10 (0 no effect, 10 complete control)
[20] = Rate 62 g/ha, Postemergence, scale of 0 to 10 where 0 is no effect and 10 is complete control
[21] = Rate 250 g/ha, Postemergence, scale 0 to 10, 0 is no effect, 10 is complete control
[22] = Rate 500 g/ha, Postemergence, scale 0 to 10
[23] = Rate 125 g/ha, 0 to 100 scale (0 no effect, 100 complete control)
[24] = Rate 1000 g/ha, 0 is no effect and 100 is complete control
[25] = Rate 500 g/ha, 0 is no effect, 100 is complete control
[26] = Preemergence, Rate 62 g/ha, scale of 0 to 10 where 0 is no effect and 10 is complete control
[27] = Rate 1000 g/ha, 0 to 100 scale where 0 is no effect and 100 is complete control
[28] = Rate 500 g/ha, 0 to 100 scale where 0 is no effect and 100 is complete control
[29] = Postemergence, Rate 1000 g/ha, scale 0 to 10 (0 no effect, 10 complete control)
[30] = Rate 1000 g/ha, Preemergence, scale 0 to 10 (0 no effect, 10 complete control)
[31] = Rate 2000 g/ha, Postemergence, scale 0 to 10
[32] = Rate 2000 g/ha, Preemergence, scale 0 to 10
[33] = Rate 2000 g/ha, 0 to 100 scale, 0 is no effect and 100 is complete control

Structure (SMILES): CC(C)N(C(=O)n1oc(=O)n(C)c1=O)c1ccc(Cl)cc1 [Compound 137]
- Plant response rating, Wheat (winter) ([1]; Rate 125 g/ha): 10
- Wheat (winter) plant response rating ([1]; Rate 250 g/ha, 0 to 100 scale where 0 is no effect and 100 is complete control): 20
- Ducksalad plant response rating [2, 12]: 0
- Ducksalad plant response rating ([2]; Rate 31 g/ha, Postemergence section (flood test species), scale 0 to 10): 0
- Ducksalad plant response rating [2, 13]: 0
- Plant response rating, Ducksalad [2, 14]: 0
- Wheat plant response rating [3, 15]: 0
- Wheat plant response rating [3, 16]: 0
- Wheat plant response rating (0 to 10 scale) [3, 17]: 4
- Wheat plant response rating [3, 18]: 5
- Wheat plant response rating [3, 19]: 5
- Wheat plant response rating [3, 20]: 0
- Plant response rating, Wheat [3, 21]: 5
- Wheat plant response rating [3, 22]: 6
- Plant response rating, Green foxtail [4, 23]: 15
- Green foxtail plant response rating (0 to 100 scale) [4]: 50
- Soybean plant response rating [5, 15]: 6
- Soybean plant response rating [5, 16]: 0
- Soybean plant response rating (0 to 10 scale) [5, 17]: 0
- Soybean plant response rating [5, 18]: 3
- Soybean plant response rating [5, 19]: 5
- Soybean plant response rating [5, 20]: 5
- Plant response rating, Soybean [5, 21]: 7
- Soybean plant response rating [5, 22]: 8
- Plant response rating, Wild oat [6, 23]: 20
- Wild oat plant response rating (0 to 100 scale) [6]: 10
- Plant response rating, Wheat (winter) [7, 23]: 20
- Wheat (winter) plant response rating (0 to 100 scale) [7]: 30
- Nutsedge plant response rating [8, 15]: 0
- Nutsedge plant response rating [8, 16]: 0
- Nutsedge plant response rating (0 to 10 scale) [8, 17]: 0
- Nutsedge plant response rating [8, 18]: 0
- Nutsedge plant response rating [8, 20]: 0
- Plant response rating, Nutsedge [8, 21]: 3
- Nutsedge plant response rating [8, 22]: 4
- Plant response rating, I. Ryegrass [9, 23]: 20
- I. Ryegrass plant response rating (0 to 100 scale) [9]: 50
- Plant response rating, Barley (winter) [10, 23]: 20
- Barley (winter) plant response rating (0 to 100 scale) [10]: 20
- Plant response rating, Blackgrass [11, 23]: 20
- Blackgrass plant response rating (0 to 100 scale) [11]: 30

Structure (SMILES): CC(C)N(C(=O)n1oc(=O)n([C@@H](C)c2ccccc2)c1=O)c1ccccc1 [Compound 173]
- Plant response rating, Wheat (winter) [1, 24]: 60
- Plant response rating, Wheat (winter) [1, 25]: 40
- Wheat plant response rating [3, 26]: 0
- Wheat plant response rating (0 to 10 scale) [3, 17]: 0
- Wheat plant response rating [3, 18]: 0
- Wheat plant response rating [3, 19]: 0
- Plant response rating, Wheat [3, 21]: 0
- Wheat plant response rating [3, 22]: 0
- Green foxtail plant response rating (0 to 100 scale) [4]: 85
- Plant response rating, Green foxtail [4, 27]: 100
- Soybean plant response rating [5, 15]: 2
- Soybean plant response rating [5, 26]: 0
- Soybean plant response rating (0 to 10 scale) [5, 17]: 0
- Soybean plant response rating [5, 18]: 0
- Soybean plant response rating [5, 19]: 3
- Soybean plant response rating [5, 20]: 2
- Plant response rating, Soybean [5, 21]: 2
- Soybean plant response rating [5, 22]: 4
- Wild oat plant response rating (0 to 100 scale) [6]: 50
- Plant response rating, Wild oat [6, 28]: 45
- Plant response rating, Wild oat [6, 27]: 50
- Wheat (winter) plant response rating (0 to 100 scale) [7]: 20
- Plant response rating, Wheat (winter) [7, 28]: 30
- Plant response rating, Wheat (winter) [7, 27]: 50
- Nutsedge plant response rating [8, 15]: 0
- Nutsedge plant response rating [8, 26]: 0
- Nutsedge plant response rating (0 to 10 scale) [8, 17]: 0
- Nutsedge plant response rating [8, 18]: 0
- Nutsedge plant response rating [8, 19]: 0
- Nutsedge plant response rating [8, 20]: 0
- Plant response rating, Nutsedge [8, 21]: 0
- Nutsedge plant response rating [8, 22]: 0
- I. Ryegrass plant response rating (0 to 100 scale) [9]: 35
- Plant response rating, I. Ryegrass [9, 28]: 45
- Plant response rating, I. Ryegrass [9, 27]: 98
- Barley (winter) plant response rating (0 to 100 scale) [10]: 30
- Plant response rating, Barley (winter) [10, 28]: 40
- Plant response rating, Barley (winter) [10, 27]: 40
- Blackgrass plant response rating (0 to 100 scale) [11]: 50
- Plant response rating, Blackgrass [11, 28]: 70
- Plant response rating, Blackgrass [11, 27]: 98

Structure (SMILES): CC(C)N(C(=O)n1oc(=O)n(N(C)c2ccccc2)c1=O)c1ccc(F)cc1 [Compound 177]
- Plant response rating, Wheat (winter) [1, 24]: 65
- Plant response rating, Wheat (winter) ([1]; Rate 2000 g/ha, 0 is no effect and 100 is complete control): 70
- Plant response rating, Wheat (winter) [1, 25]: 70
- Ducksalad plant response rating [2, 12]: 0
- Ducksalad plant response rating [2, 13]: 0
- Plant response rating, Ducksalad [2, 14]: 2
- Ducksalad plant response rating ([2]; Rate 250 g/ha, Pre-emergence, flood-test species, scale 0 to 10, 0 is no effect, 10 is complete control): 0
- Plant response rating, Ducksalad ([2]; Rate 500 g/ha, headed Pre-emergence (flood test species), scale 0 to 10 (0 no effect, 10 complete control)): 0
- Ducksalad plant response rating ([2]; Rate 500 g/ha, listed under Postemergence (flood test species), scale 0 to 10): 2
- Ducksalad plant response rating ([2]; Rate 1000 g/ha, Pre-emergence (as headed), scale 0 to 10): 0
- Ducksalad plant response rating ([2]; Rate 2000 g/ha, Pre-emergence (as headed), scale 0 to 10): 0
- Wheat plant response rating [3, 29]: 3
- Wheat plant response rating [3, 26]: 0
- Wheat plant response rating (0 to 10 scale) [3, 17]: 0
- Wheat plant response rating [3, 18]: 0
- Wheat plant response rating [3, 19]: 0
- Plant response rating, Wheat [3, 21]: 0
- Wheat plant response rating [3, 22]: 4
- Plant response rating, Wheat [3, 30]: 0
- Wheat plant response rating [3, 31]: 3
- Wheat plant response rating [3, 32]: 2
- Plant response rating, Green foxtail [4, 33]: 100
- Plant response rating, Green foxtail [4, 28]: 60
- Plant response rating, Green foxtail [4, 27]: 85
- Soybean plant response rating [5, 15]: 1
- Soybean plant response rating [5, 29]: 3
- Soybean plant response rating [5, 26]: 0
- Soybean plant response rating (0 to 10 scale) [5, 17]: 0
- Soybean plant response rating [5, 18]: 0
- Soybean plant response rating [5, 19]: 0
- Soybean plant response rating [5, 20]: 1
- Plant response rating, Soybean [5, 21]: 2
- Soybean plant response rating [5, 22]: 4
- Plant response rating, Soybean [5, 30]: 0
- Soybean plant response rating [5, 31]: 4
- Soybean plant response rating [5, 32]: 0
- Plant response rating, Wild oat [6, 33]: 70
- Plant response rating, Wild oat [6, 28]: 80
- Plant response rating, Wild oat [6, 27]: 80
- Plant response rating, Wheat (winter) [7, 33]: 70
- Plant response rating, Wheat (winter) [7, 28]: 70
- Plant response rating, Wheat (winter) [7, 27]: 50
- Nutsedge plant response rating [8, 15]: 0
- Nutsedge plant response rating [8, 29]: 0
- Nutsedge plant response rating [8, 26]: 0
- Nutsedge plant response rating (0 to 10 scale) [8, 17]: 0
- Nutsedge plant response rating [8, 18]: 0
- Nutsedge plant response rating [8, 19]: 0
- Nutsedge plant response rating [8, 20]: 0
- Plant response rating, Nutsedge [8, 21]: 0
- Nutsedge plant response rating [8, 22]: 0
- Plant response rating, Nutsedge [8, 30]: 0
- Nutsedge plant response rating [8, 31]: 0
- Nutsedge plant response rating [8, 32]: 0
- Plant response rating, I. Ryegrass [9, 33]: 65
- Plant response rating, I. Ryegrass [9, 28]: 60
- Plant response rating, I. Ryegrass [9, 27]: 60
- Plant response rating, Barley (winter) [10, 33]: 80
- Plant response rating, Barley (winter) [10, 28]: 60
- Plant response rating, Barley (winter) [10, 27]: 70
- Plant response rating, Blackgrass [11, 33]: 60
- Plant response rating, Blackgrass [11, 28]: 60
- Plant response rating, Blackgrass [11, 27]: 60

Reference: patent US6737383B1, “Herbicidal oxadiazolidines” (priority 1999, dated 2004)
